Series [1] has as its target T1, Corynebacterium glutamicum ATCC 21253 pyruvate carboxylase, wild type, SEQ ID NO:19 (Corynebacterium glutamicum, UniProt H7C7K2).
T1 construct: coupled citrate synthase/DTNB assay
T1 sequence (H7C7K2 1-1140): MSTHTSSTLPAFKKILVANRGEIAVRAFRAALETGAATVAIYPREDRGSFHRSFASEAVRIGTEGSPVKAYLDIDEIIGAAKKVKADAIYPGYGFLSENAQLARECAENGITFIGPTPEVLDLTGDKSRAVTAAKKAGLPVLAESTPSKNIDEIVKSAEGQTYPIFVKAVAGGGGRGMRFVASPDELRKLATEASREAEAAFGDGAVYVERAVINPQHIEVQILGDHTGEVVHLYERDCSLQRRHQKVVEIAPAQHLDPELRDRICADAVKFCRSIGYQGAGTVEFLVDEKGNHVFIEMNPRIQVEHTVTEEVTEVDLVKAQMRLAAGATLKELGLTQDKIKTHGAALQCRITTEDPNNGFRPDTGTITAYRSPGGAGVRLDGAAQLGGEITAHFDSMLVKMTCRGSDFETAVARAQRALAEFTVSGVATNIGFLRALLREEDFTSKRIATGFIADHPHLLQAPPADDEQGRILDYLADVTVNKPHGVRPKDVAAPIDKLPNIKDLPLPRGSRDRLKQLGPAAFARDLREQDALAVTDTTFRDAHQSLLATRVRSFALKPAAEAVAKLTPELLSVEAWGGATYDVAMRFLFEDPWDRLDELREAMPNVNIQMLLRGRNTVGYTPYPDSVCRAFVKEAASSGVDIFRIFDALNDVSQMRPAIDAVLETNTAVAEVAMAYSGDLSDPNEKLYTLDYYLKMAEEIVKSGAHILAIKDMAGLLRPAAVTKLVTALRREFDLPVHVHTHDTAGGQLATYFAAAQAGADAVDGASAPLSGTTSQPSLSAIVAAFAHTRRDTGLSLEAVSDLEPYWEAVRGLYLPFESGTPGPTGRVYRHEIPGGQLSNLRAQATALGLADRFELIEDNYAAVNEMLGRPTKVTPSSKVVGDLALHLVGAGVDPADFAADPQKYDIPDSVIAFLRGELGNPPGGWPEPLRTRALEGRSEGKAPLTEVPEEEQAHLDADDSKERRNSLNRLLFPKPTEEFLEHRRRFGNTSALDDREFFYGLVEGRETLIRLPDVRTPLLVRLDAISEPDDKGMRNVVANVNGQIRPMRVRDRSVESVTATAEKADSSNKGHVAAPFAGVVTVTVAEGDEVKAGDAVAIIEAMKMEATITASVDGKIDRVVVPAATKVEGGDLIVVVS
As to the kind of experiment: Continuous pyruvate carboxylase assay (permeabilized cells), ATCC 21253. It counts as biochemical. How it is done: (§1) Pyruvate carboxylate and phosphoenol pyruvate carboxylate assays were performed with permeabilized cells prepared by the following method. Log phase cells were harvested by centrifugation for 10 min at 5000×g at 4° C. and washed with 20 ml of the ice-cold washing buffer (50 mM Tris/HCl [pH 6.3] containing 50 mM NaCl). The cell pellet was resuspended in an ice-cold Hepes buffer (100 mM Hepes [pH 7.5] containing 20% Glycerol) to reach a final concentration of 25 g dry cell weight/liter. Resuspended cells were permeabilized by adding 30 μl of a 10% Hexadecyltrimethyl-ammonium bromide (CTAB) (w/v) solution to 1 ml of cells to give a final concentration of 0.3% (CTAB)(v/v). […]
(§2) Pyruvate carboxylase activity was determined as a function of various concentrations of its substrates: pyruvate, bicarbonate and ATP (FIG. 3). Based on the data generated, the affinity constants of pyruvate carboxylase for its substrates were determined (Table 2).
To determine the effect of aspartate on the activity of pyruvate carboxylase, aspartate was added at different concentrations in the spectrophotometer cuvette and enzyme activities were measured. […]
(§3) Pyruvate carboxylase activity was measured in the presence of different concentrations of acetyl-CoA (FIG. 6). […]

Series [2] concerns the target Corynebacterium glutamicum NRRL B-11474 (BF100) pyruvate carboxylase, feedback-resistant variant (M1V, E153D, A182S, A206S, H227R, A455G, D1120E), SEQ ID NO:2 (Corynebacterium glutamicum, UniProt H7C7K2, A182S/A206S/A455G/D1120E/E153D/H227R/M1V). How it is done: Pyruvate carboxylate and phosphoenol pyruvate carboxylate assays were performed with permeabilized cells prepared by the following method. Log phase cells were harvested by centrifugation for 10 min at 5000×g at 4° C. and washed with 20 ml of the ice-cold washing buffer (50 mM Tris/HCl [pH 6.3] containing 50 mM NaCl). The cell pellet was resuspended in an ice-cold Hepes buffer (100 mM Hepes [pH 7.5] containing 20% Glycerol) to reach a final concentration of 25 g dry cell weight/liter. Resuspended cells were permeabilized by adding 30 μl of a 10% Hexadecyltrimethyl-ammonium bromide (CTAB) (w/v) solution to 1 ml of cells to give a final concentration of 0.3% (CTAB)(v/v).
The reaction was started at 30° C. with the addition of 10 μl of the permeabilized cell suspension, and the formation of DTNB-thiophenolate was followed over time at 412 nm. Relevant standards and controls were carried out in the same manner.
(§4) To account for the intrinsic loss of OAA during the experiment, a continuous assay was carried out by coupling the two-reaction assay to a one-reaction assay in presence of an excess of citrate synthase. The amount of permeabilized cells added in the assay was optimized to obtain a detectable activity, with the lowest possible background absorbency due to the presence of cells.
as §2
To determine the effect of aspartate on the activity of pyruvate carboxylase, aspartate was added at different concentrations in the spectrophotometer cuvette and enzyme activities were measured. As a comparison, the same experiment was carried out with PEPC in ATCC 21253 (FIG. 5).
Pyruvate carboxylase activity was measured in the presence of different concentrations of acetyl-CoA (FIG. 6). […] The effect of acetyl-CoA on citrate synthase itself was studied also.

Series [3] deals with pyruvate carboxylase. Kind of series: Controls for the continuous pyruvate carboxylate assay. Particulars: complete mixture + biotin (complete mixture alone 0.30). The format is biochemical, Corynebacterium glutamicum. The protocol:
For determination of pyruvate carboxylate activity, the assay mixture contained 10 mM pyruvic acid, 14 mM KHCO3, 4 mM MgCl2, 1.75 mM ATP, 50 μmole acetyl-CoA, 0.3 mg bovine serum albumin, 0.055 U citrate synthase and 50 mM sodium phosphate buffer ([pH 7.5] containing 0.1 mg 5,5′-Dithio-bis(2-nitrobenzoic acid) (DTNB)) in a final volume of 1 ml. The reaction was started at 30° C. with the addition of 10 μl of the permeabilized cell suspension, and the formation of DTNB-thiophenolate was followed over time at 412 nm. Relevant standards and controls were carried out in the same manner.
as §4
To confirm that the continuous assay specifically detected pyruvate carboxylase activity, controls were carried out by assaying for activity in absence of each reaction component (Table 1). Using these controls, the detected activity was determined to be a carboxylation reaction requiring pyruvate, Mg and ATP.

Series [4] deals with Nc1ncnc2c1ncn2[C@@H]1O[C@H](COP(=O)(O)OP(=O)(O)OP(=O)(O)O)[C@@H](O)[C@H]1O. As to the kind of experiment: purified protein, by the assay type. Particulars: other: permeabilized cells, pH 7.5, 30° C.
Method: (§7) To account for the intrinsic loss of OAA during the experiment, a continuous assay was carried out by coupling the two-reaction assay to a one-reaction assay in presence of an excess of citrate synthase. […]
In a further series the test system is CC(=O)C(=O)O. Kind of series: purified protein, by the assay type. Particulars: other: permeabilized cells, pH 7.5, 30° C.
Series [5] has as its system pyruvate carboxylase from NRRL B-11474. Kind of series: Effect of aspartate, ATP and acetyl-CoA on pyruvate carboxylase activity, strain NRRL B-11474. The format is biochemical, Corynebacterium glutamicum. How it is done:
as §1
(§5) Pyruvate carboxylase activity was determined as a function of various concentrations of its substrates: pyruvate, bicarbonate and ATP (FIG. 3). Based on the data generated, the affinity constants of pyruvate carboxylase for its substrates were determined (Table 2). […]
(§6) Aspartate inhibits phosphoenol pyruvate carboxylase (PEPC) activity. To determine the effect of aspartate on the activity of pyruvate carboxylase, aspartate was added at different concentrations in the spectrophotometer cuvette and enzyme activities were measured. […]
as §3

Series [6] relates to pyruvate carboxylase from ATCC 21253. Kind of series: Effect of aspartate, ATP and acetyl-CoA on pyruvate carboxylase activity, strain ATCC 21253. It counts as biochemical, Corynebacterium glutamicum. How it is done:
as §1, §5, §6, §3

A further series relates to citrate synthase. Kind of series: Effect of acetyl-CoA on citrate synthase. The format is biochemical. Particulars: acetyl-CoA on citrate synthase itself. How it is done: Pyruvate carboxylase activity was measured in the presence of different concentrations of acetyl-CoA (FIG. 6). Pyruvate carboxylase activity in both strains increased with increasing acetyl-CoA concentrations. The effect of acetyl-CoA on citrate synthase itself was studied also. […] Therefore, the increasing activity of pyruvate carboxylase with increasing acetyl-CoA concentration is the result of acetyl-CoA activating pyruvate carboxylase.

Series [7] deals with pyruvate carboxylase. Kind of series: Continuous pyruvate carboxylase assay with permeabilized cells: affinity constants for substrates and basal activity. It counts as biochemical, Corynebacterium glutamicum. Particulars: NRRL B-11474 versus ATCC 21253.
[8] abbreviates: ATP above a concentration of 2 mM.
[9] abbreviates: different concentrations of acetyl-CoA.

Method for CC(=O)C(=O)O: as §7

With `O=C(O)O` [HCO3−, bicarbonate], the Km (as a rule, the concentration of substrate that gives half-maximal velocity) in series [1] (permeabilized cells, pH 7.5, 30° C., read-out: KM(HCO3−)) came out at 2900 ± 800 µM; in series [2] (read-out: KM(HCO3−), permeabilized cells, pH 7.5, 30° C.), 14400 ± 4000 µM.

In the case of `O=C(O)CCCC[C@@H]1SC[C@@H]2NC(=O)N[C@@H]21` [biotin], the “Detected Activity” value in the series with pyruvate carboxylase [3] is given as 0.35 Abs/min.mg DCW.

As for “Corynebacterium glutamicum NRRL B-11474 (BF100) pyruvate carboxylase, feedback-resistant variant (M1V, E153D, A182S, A206S, H227R, A455G, D1120E), SEQ ID NO:2 (Corynebacterium glutamicum ATCC 13032; A182S/A206S/A455G/D1120E/E153D/H227R/M1V)”, the Km in series [4] came to 400 ± 100 µM; with CC(=O)C(=O)O, 1300 ± 300 µM.

`Nc1ncnc2c1ncn2[C@@H]1O[C@H](COP(=O)(O)OP(=O)(O)OP(=O)(O)O)[C@@H](O)[C@H]1O` [ATP, adenosine triphosphate]: the “inhibition of pyruvate carboxylase activity by ATP” value in [1] (setting [8]) and in [2] (setting [8]) was “inhibited” in each case. The “ATP concentration above which activity is inhibited” value in series [5] and in series [6] was greater than 2 mM in each case.

In the case of `CC(=O)SCCNC(=O)CCNC(=O)[C@H](O)C(C)(C)COP(=O)(O)OP(=O)(O)OC[C@H]1O[C@@H](n2cnc3c(N)ncnc32)[C@H](O)[C@@H]1OP(=O)(O)O` [acetyl-CoA], the Km in the series with citrate synthase was 10 µM. The “pyruvate carboxylase activity with increasing acetyl-CoA concentrations” value in series [5] (setting [9]) and in [6] (setting [9]) was “increased” each time.

B1: Pyc: feedback-resistant pyruvate carboxylase (SEQ ID NO:2) from Corynebacterium glutamicum NRRL B-11474, also known as BF100 (protein)
chain: MTAITLGGLLLKGIITLVSTHTSSTLPAFKKILVANRGEIAVRAFRAALETGAATVAIYPREDRGSFHRSFASEAVRIGTEGSPVKAYLDIDEIIGAAKKVKADAIYPGYGFLSENAQLARECAENGITFIGPTPEVLDLTGDKSRAVTAAKKAGLPVLAESTPSKNIDDIVKSAEGQTYPIFVKAVAGGGGRGMRFVSSPDELRKLATEASREAEAAFGDGSVYVERAVINPQHIEVQILGDRTGEVVHLYERDCSLQRRHQKVVEIAPAQHLDPELRDRICADAVKFCRSIGYQGAGTVEFLVDEKGNHVFIEMNPRIQVEHTVTEEVTEVDLVKAQMRLAAGATLKELGLTQDKIKTHGAALQCRITTEDPNNGFRPDTGTITAYRSPGGAGVRLDGAAQLGGEITAHFDSMLVKMTCRGSDFETAVARAQRALAEFTVSGVATNIGFLRALLREEDFTSKRIATGFIGDHPHLLQAPPADDEQGRILDYLADVTVNKPHGVRPKDVAAPIDKLPNIKDLPLPRGSRDRLKQLGPAAFARDLREQDALAVTDTTFRDAHQSLLATRVRSFALKPAAEAVAKLTPELLSVEAWGGATYDVAMRFLFEDPWDRLDELREAMPNVNIQMLLRGRNTVGYTPYPDSVCRAFVKEAASSGVDIFRIFDALNDVSQMRPAIDAVLETNTAVAEVAMAYSGDLSDPNEKLYTLDYYLKMAEEIVKSGAHILAIKDMAGLLRPAAVTKLVTALRREFDLPVHVHTHDTAGGQLATYFAAAQAGADAVDGASAPLSGTTSQPSLSAIVAAFAHTRRDTGLSLEAVSDLEPYWEAVRGLYLPFESGTPGPTGRVYRHEIPGGQLSNLRAQATALGLADRFELIEDNYAAVNEMLGRPTKVTPSSKVVGDLALHLVGAGVDPADFAADPQKYDIPDSVIAFLRGELGNPPGGWPEPLRTRALEGRSEGKAPLTEVPEEEQAHLDADDSKERRNSLNRLLFPKPTEEFLEHRRRFGNTSALDDREFFYGLVEGRETLIRLPDVRTPLLVRLDAISEPDDKGMRNVVANVNGQIRPMRVRDRSVESVTATAEKADSSNKGHVAAPFAGVVTVTVAEGDEVKAGDAVAIIEAMKMEATITASVDGKIERVVVPAATKVEGGDLIVVVS
As to B1, the “basal pyruvate carboxylase activity relative to ATCC 21253” value in the series with pyruvate carboxylase [7] was “about 5 times”.

For the origin of these results see patent US6965021B2, “Feedback-resistant pyruvate carboxylase gene from corynebacterium” (Archer-Daniels-Midland Company, priority 2000, dated 2005).
